The text below walks through data of US5827845A, “Cephalosporin derivative” (priority 1993, dated 1998).

Data set [1] can be described thus: blood concentration pharmacokinetics after subcutaneous injection in mice. Format: in vivo, mice (Jcl;ICR strain). Conditions: for concentration in blood (in words): injected subcutaneously, mice; for half-life / AUC: mouse, serum, sc, 0.5 mg; for AUC: read-out: AUC (area under the plasma concentration-time curve). The method, then:
The test procedure used was as follows: Thus, to mice of Jcl;ICR strain (4 week-aged, male) each was administered subcutaneously an aqueous solution containing 2.5 mg/ml of a test compound dissolved in distilled water sterilized for injections, in such a way that 0.2 ml of said aqueous solution (corresponding to a dosage of the test compound of 0.5 mg per mouse) was injected to one mouse. At the time-points of 5, 15, 30, 60 and 120 minutes after the administration, the blood samples were collected from the armpit of mouse. The blood samples so collected were each allowed to stand for about 2 hours at room temperature and then centrifuged for 10 minutes in a centrifugal separator to recover the serum. The serum obtained was mixed well with an equal volume of methanol added thereto, and the resulting mixture was centrifuged at 12,000 rpm. for 3 minutes. The supernatant obtained was passed through a filter (Sumplep LCR-13-LH) to obtain the serum sample to be assayed by a high performance liquid chromatography (HPLC). This serum sample was assayed by HPLC to measure quantitatively the concentration of the test compound in the serum.
For each test compound, its half-life value in blood and its AUC (Area under the plasma concentration-time curve),which are the pharmacokinetic parameters, were evaluated according to the method of Gauss-Newton.
For the comparison purpose, the ME1206 compound was also tested in the same manner as above.

In data set [2] the test system is Enterococcus hirae ATCC 8043. The data set is described as follows: minimum growth inhibitory concentration, serial dilution method. Format: cell-based. Conditions: sodium salts, 35° C., 18-20 hours; for MIC: Enterococcus hirae, ATCC8043, Enterococcus hirae ATCC 8043, read-out: Minimum growth inhibition concentrations (MIC). The method, then:
(§1) The determination of MIC. was conducted by inoculating the test microorganism to an incubation medium N for sensitive disc (a product of Nissui Seiyaku Co., Japan), effecting the incubation at 35° C. for 18-20 hours and then estimating the growth of the bacteria. The compounds tested were the sodium salts of Compound A to Compound F indicated below:
(§2) For the comparison purpose, the values similarly determined of MIC. ([…]) of ME1206 compound (sodium salt), Cefdinir (sodium salt) (abbreviated as CFDN) and Cefixime (sodium salt) (abbreviated as CFIX) are also shown in Table 1.

The subject of a further data set is Escherichia coli GN 206. The data set is described as above. The class given is cell-based. Conditions: sodium salts, 35° C., 18-20 hours; for MIC: Escherichia coli, GN206, Escherichia coli GN 206, read-out: Minimum growth inhibition concentrations (MIC). The method, then: as §1, §2
Data set [3] deals with Serratia marcescens No. 1. The description is as above. Conditions: sodium salts, 35° C., 18-20 hours; for MIC: read-out: Minimum growth inhibition concentrations (MIC). The class given is cell-based. The method, then: as §1, §2
In data set [4] the test system is Staphylococcus aureus M133*. The description is as above. Conditions: S. aureus M133, methicillin-resistant (MRSA), sodium salts, 35° C., 18-20 hours; for MIC: Staphylococcus aureus, MRSA, read-out: Minimum growth inhibition concentrations (MIC). Format: cell-based. The method, then: as §1, §2
The test system of data set [5] is Enterococcus faecalis W-73. Described as above. Conditions: sodium salts, 35° C., 18-20 hours; for MIC: Enterococcus faecalis, W73, Enterococcus faecalis W-73, read-out: Minimum growth inhibition concentrations (MIC); for Minimum growth inhibition concentrations (MIC): Enterococcus faecalis W-73. Format: cell-based. The method, then: as §1, §2
Data set [6] relates to Enterobacter cloacae G-0008. Described as above. Format: cell-based. Conditions: 35° C., 18-20 hours; for MIC: G0008, sodium salts, read-out: Minimum growth inhibition concentrations (MIC). The method, then: as §1, §2
Data set [7] has as its system Staphylococcus aureus M126*. The data set is described as above. The class given is cell-based. As to conditions: S. aureus M126, methicillin-resistant (MRSA), sodium salts, 35° C., 18-20 hours; for MIC: Staphylococcus aureus, read-out: Minimum growth inhibition concentrations (MIC). The method, then:
as §1, §2

Data set [8] concerns Staphylococcus aureus 209P JC-1. The description is as above. Conditions: S. aureus 209P JC-1, sodium salts, 35° C., 18-20 hours; for MIC: Staphylococcus aureus, 209P, read-out: Minimum growth inhibition concentrations (MIC). Format: cell-based. The method, then:
as §1, §2

The test system of the next data set is Morganella morganii 1510. The description is as above. Format: cell-based. As to conditions: sodium salts, 35° C., 18-20 hours; for MIC: Morganella morganii, 1510, Morganella morganii 1510, read-out: Minimum growth inhibition concentrations (MIC). The method, then: as §1, §2
Setting [9] is: sodium salt, subcutaneous, 0.5 mg per mouse, HPLC of serum.

In the case of `Cc1ncsc1C=CC1=C(C(=O)O)N2C(=O)C(NC(=O)C(=NO)c3nsc(N)n3)C2SC1` (stereo not drawn) [Compound F, 7-[2-Hydroxyimino-2-(5-amino-1,2,4-thiadiazol-3-yl)acetamido]-3-[2-(4-methylthiazol-5-yl)vinyl]-3-cephem-4-carboxylic acid (syn-isomer, cis-isomer)], the “concentration in blood (in words)” value in [1] was “capable of maintaining a high concentration in blood”. Moreover, the half-life in data set [1] (setting [9]) is 0.9 h. The AUC in [1] (setting [9]) worked out at 163 µg·h/mL. Besides, the MIC in [2] turned out to be 25 µg/mL; with Escherichia coli GN 206, 6.25 µg/mL; in [3] it was 3.13 µg/mL; in data set [4], 3.13 µg/mL; in data set [5] it was 25 µg/mL; in [6], 1.56 µg/mL. In addition, the values for the MIC (in [7]; in data set [8]; in the data set with Morganella morganii 1510) were 50 µg/mL, 0.39 µg/mL and 25 µg/mL, respectively.
As for `CON=C(C(=O)NC1C(=O)N2C(C(=O)O)=C(C=Cc3scnc3C)CSC12)c1csc(N)n1` (stereo not drawn) [ME1206, 7-[2-methoxyimino-2-(2-aminothiazol-4-yl)acetamido]-3-[2-(4-methylthiazol-5-yl)vinyl]-3-cephem-4-carboxylic acid (syn-isomer, cis-isomer), reference compound], the half-life in [1] (setting [9]) is 1.1 h. Further, the AUC in [1] (setting [9]) is 184 µg·h/mL. Further, the MIC in [2] worked out at 50 µg/mL; with Escherichia coli GN 206, 0.78 µg/mL; in data set [3], 0.39 µg/mL; in data set [4], 25 µg/mL; in data set [5], 100 µg/mL; in data set [6], 1.56 µg/mL. Moreover, the MIC in data set [7] came to 100 µg/mL; in [8], 0.39 µg/mL; in the data set on Morganella morganii 1510, 25 µg/mL.
As to `Cc1ncsc1C=CC1=C(C(=O)O)N2C(=O)C(NC(=O)C(=NO)c3csc(N)n3)C2SC1` (stereo not drawn) [Compound C, 7-[2-Hydroxyimino-2-(2-aminothiazol-4-yl)acet-amido]-3-[2-(4-methylthiazol-5-yl)vinyl]-3-cephem-4-carboxylic acid (syn-isomer, cis-isomer)], the “concentration in blood (in words)” value in data set [1] is on record as “capable of maintaining a high concentration in blood”. The half-life in data set [1] (setting [9]) was 1.4 h. Further, the AUC in data set [1] (setting [9]) was found to be 249 µg·h/mL. For the same molecule, the “AUC (area under the plasma concentration-time curve)” value in [1] (setting [9]) was determined as 315.5 µg·h/mL. The “Half-life value in blood” value in data set [1] (setting [9]) stood at 1.7 h. The MIC in data set [2] was determined as 6.25 µg/mL; with Escherichia coli GN 206, 3.13 µg/mL; in data set [3], 1.56 µg/mL; in data set [4], 6.25 µg/mL; in data set [5], 12.5 µg/mL; in data set [6], 0.78 µg/mL. The figures for the MIC (in [7]; in data set [8]; with Morganella morganii 1510) were 25 µg/mL, 0.2 µg/mL and 1.56 µg/mL, respectively.
Consider `Nc1nc(C(=NO)C(=O)NC2C(=O)N3C(C(=O)O)=C(C=Cc4scnc4Cl)CSC23)cs1` (stereo not drawn) [Compound A, 7-[2-Hydroxyimino-2-(2-aminothiazol-4-yl)acet-amido]-3-[2-(4-chlorothiazol-5-yl)vinyl]-3-cephem-4-carboxylic acid (syn-isomer, cis-isomer)], for which, in data set [1], the “concentration in blood (in words)” value is “capable of maintaining a high concentration in blood”. In addition, the half-life in data set [1] (setting [9]) is 1.1 h. The AUC in data set [1] (setting [9]) came out at 211 µg·h/mL. Moreover, the MIC stood at 12.5 µg/mL in data set [2]; 1.56 µg/mL in the data set with Escherichia coli GN 206; 1.56 µg/mL in [3]; 6.25 µg/mL in data set [4]; 6.25 µg/mL in [5]; 1.56 µg/mL in data set [6]. Moreover, the values for the MIC (in [7]; in data set [8]; with Morganella morganii 1510) were 25 µg/mL, 0.1 µg/mL and 12.5 µg/mL, respectively.
Take `Nc1nc(C(=NO)C(=O)NC2C(=O)N3C(C(=O)O)=C(C=Cc4cncs4)CSC23)cs1` (stereo not drawn) [Compound D, 7-[2-Hydroxyimino-2-(2-aminothiazol-4-yl)acet-amido]-3-[2-(thiazol-5-yl)vinyl]-3-cephem-4-carboxylic acid(syn-isomer, cis-isomer)]: in data set [1], the “concentration in blood (in words)” value is listed as “capable of maintaining a high concentration in blood”. Moreover, the MIC turned out to be 12.5 µg/mL in data set [2]; 1.56 µg/mL in the data set on Escherichia coli GN 206; 0.78 µg/mL in data set [3]; 3.13 µg/mL in data set [4]; 0.78 µg/mL in data set [6]; 25 µg/mL in [7]. Moreover, the MIC in data set [8] was determined as 0.1 µg/mL; in the data set with Morganella morganii 1510, 12.5 µg/mL. Also, the “Minimum growth inhibition concentrations (MIC)” value in data set [5] turned out to be 1.56 µg/mL.
For the molecule `Nc1nc(C(=NO)C(=O)NC2C(=O)N3C(C(=O)O)=C(C=Cc4cncs4)CSC23)cs1` (stereo not drawn) [Compound E, 7-[2-Hydroxyimino-2-(2-aminothiazol-4-yl)acet-amido]-3-[2-(thiazol-5-yl)vinyl]-3-cephem-4-carboxylic acid (syn-isomer, trans-isomer)], in data set [1], the “concentration in blood (in words)” value is recorded as “capable of maintaining a high concentration in blood”. The half-life in data set [1] (setting [9]) is 1.1 h. Also, the AUC in data set [1] (setting [9]) was found to be 253 µg·h/mL. Besides, the “Minimum growth inhibition concentrations (MIC)” value was 25 µg/mL in data set [2] (Enterococcus hirae ATCC 8043); 0.78 µg/mL in the data set on Escherichia coli GN 206 (Escherichia coli GN 206); 0.78 µg/mL in data set [3]; 6.25 µg/mL in data set [4]; 3.13 µg/mL in data set [5]; 0.78 µg/mL in [6] (sodium salts). The figures for the “Minimum growth inhibition concentrations (MIC)” value (in data set [7]; in [8]; in the data set with Morganella morganii 1510 (Morganella morganii 1510)) were 25 µg/mL, 0.20 µg/mL and 6.25 µg/mL, respectively.
For the molecule `C=CC1=C(C(=O)O)N2C(=O)[C@@H](NC(=O)/C(=N\O)c3csc(N)n3)[C@H]2SC1` [CFDN, Cefdinir, reference compound], the MIC was 50 µg/mL in [2]; 25 µg/mL with Escherichia coli GN 206; 25 µg/mL in data set [3]; 6.25 µg/mL in data set [4]; 25 µg/mL in [5]; 6.25 µg/mL in [6]. In addition, the MIC in [7] was above 100 µg/mL; in [8] it was 0.2 µg/mL; in the data set with Morganella morganii 1510, 25 µg/mL.
As to `C=CC1=C(C(=O)O)N2C(=O)[C@@H](NC(=O)/C(=N\OCC(=O)O)c3csc(N)n3)[C@H]2SC1` [CFIX, Cefixime, reference compound], the MIC in data set [2] was above 100 µg/mL; in the data set with Escherichia coli GN 206, 50 µg/mL; in data set [3] it was 0.78 µg/mL; in data set [4], 100 µg/mL; in data set [5], above 100 µg/mL; in [6], 0.78 µg/mL. For the same molecule, the MIC in data set [7] was above 100 µg/mL; in [8], 12.5 µg/mL; with Morganella morganii 1510, 50 µg/mL.

In general, half-life refers to the time needed for the level to fall by half in the phase considered.
